Measured values taken from publication PMC12797721 (Cell Communication and Signaling : CCS, 2025).

Assays:
C18ORF32 [1] = target: C18ORF32 (Homo sapiens, UniProt Q8TCD1, F19A/Y16A/Y23A/Y25A); assay: isothermal titration calorimetry; assay type: binding
C18ORF32 [2] = target: C18ORF32 (Homo sapiens, UniProt Q8TCD1); assay: isothermal titration calorimetry; assay type: binding
Chain of C18ORF32 (Homo sapiens, UniProt Q8TCD1) (Q8TCD1 whole entry): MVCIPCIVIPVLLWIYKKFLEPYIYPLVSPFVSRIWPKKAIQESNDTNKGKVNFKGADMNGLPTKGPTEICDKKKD

Chain of C18ORF32 (Homo sapiens, UniProt Q8TCD1, F19A/Y16A/Y23A/Y25A) (Q8TCD1 whole entry Y16A/F19A/Y23A/Y25A): as the sequence (Q8TCD1 whole entry) above, with Y16A, F19A, Y23A, Y25A counted along it

Kd (C18ORF32 [1]): 557 µM | Kd (C18ORF32 [2]): 0.0678 µM
SMILES: C[N+](C)(C)CCO [choline]
